One compound from PMC4730870 (Journal of natural products, 2015) can be followed below.

In this assay the test system is peritoneal macrophages. The assay is described as follows: In vitro mammalian toxicity, MTT method. The assay is classed as cell-based, BALB/c mice. Particulars: CC50 against macrophages/IC50 against amastigotes. Background: Tetrazolium dyes change colour on reduction, which living cells bring about.

SMILES strings stand for the structures.

`C=CCc1ccc(Oc2cc([C@H](O)C=C)cc(OC)c2O)c(OC)c1` [Compound 3, 1-[(7R)-Hydroxy-8-propenyl]-3-[3′-methoxy-1′-(8′-propenyl)-phenoxy]-4-hydroxy-5-methoxybenzene]: the “SI selectivity index (CC50 mammalian cells/IC50 Leishmania amastigotes)” value is listed as above 2.9.
